Data taken from patent publication US20250313572A1, “MACROCYCLIC MCL-1 INHIBITORS AND METHODS OF USE” (AbbVie Inc., priority 2017, published 2025).
Like-named read-outs stand apart in the source and are kept apart here.

Columns and labels:
[1] = tested on: NCI-H929 human multiple myeloma tumor cell line; assay: NCI-H929 cell viability assay (CellTiter-Glo, 24 hours); assay type: cell-based
[2] = tested on: AMO-1 human multiple myeloma tumor cell line; assay: AMO-1 cell viability assay (CellTiter-Glo, 24 hours); assay type: cell-based
[3] = target: GST-MCL-1 (Homo sapiens, UniProt Q07820); assay: TR-FRET MCL-1 binding assay (competition with probe F-Bak)
GST-MCL-1, sequence (Q07820 whole entry): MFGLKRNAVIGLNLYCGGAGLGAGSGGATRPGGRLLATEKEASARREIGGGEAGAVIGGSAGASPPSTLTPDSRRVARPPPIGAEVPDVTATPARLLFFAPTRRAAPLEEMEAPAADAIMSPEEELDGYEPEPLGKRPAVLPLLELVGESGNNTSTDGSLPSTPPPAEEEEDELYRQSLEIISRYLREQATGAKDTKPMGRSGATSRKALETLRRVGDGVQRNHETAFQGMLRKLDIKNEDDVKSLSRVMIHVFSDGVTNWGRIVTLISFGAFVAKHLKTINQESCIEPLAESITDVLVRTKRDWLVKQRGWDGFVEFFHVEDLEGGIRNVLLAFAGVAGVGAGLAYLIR
How it was run: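 Displacement of F-Bak from GST-MCL-1 is detected by time-resolved FRET with a Tb-labelled anti-GST antibody, with excitation 340/35 nm and emission 520/525 and 495/510 nm, after 2 hours at room temperature. Compounds were titrated in 11 three-fold steps starting at 25 μM final, in buffer alone or in 10% HS.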

[4] = read-out: H929 Viability IC50 (μM, 10% FBS), 10% FBS, 24 hours of compound treatment
[5] = read-out: AMO-1 Viability IC50 (μM, 10% FBS), 10% FBS, 24 hours of compound treatment
[6] = MCL-1 Binding Ki (nM, 10% HS), in the presence of 10% HS (human serum)
[7] = without HS, read-out: MCL-1 Binding Ki
[8] = Homo sapiens, NCI-H929, 24 h, read-out: H929 Viability IC50 (μM, 10% FBS), 10% FBS, 24 hours of compound treatment
[9] = Homo sapiens, AMO1, 24 h, read-out: AMO-1 Viability IC50 (μM, 10% FBS), 10% FBS, 24 hours of compound treatment

SMILES	IC50 [1, 4]	IC50 [2, 5]	Ki [3, 6]	Ki [3, 7]	IC50 [1, 8]	IC50 [2, 9]
COCCOCCOCCOCC1(F)CC=C(c2nccc(COc3ccc4cc3C[C@H](C(=O)O)Oc3ncnc5sc(-c6ccc(F)cc6)c(c35)-c3c(C)c(Cl)c(c(Cl)c3C)O[C@H](CN3CCN(C)CC3)CO4)n2)CC1 (single isomer, unassigned) [Example 111, (7R,16R)-19,23-dichloro-1-(4-fluorophenyl)-10-({2-[(4R*)-4-fluoro-4-(2,5,8,11-tetraoxadodecan-1-yl)cyclohex-1-en-1-yl]pyrimidin-4-yl}methoxy)-20,22-dimethyl-16-[(4-methylpiperazin-1-yl)methyl]-7,8,15,16-tetrahydro-18,21-etheno-13,9-(metheno)-6,14,17-trioxa-2-thia-3,5-diazacyclononadeca[1,2,3-cd]indene-7-carboxylic Acid]	0.000298 µM	0.000161 µM	0.101 nM	0.014 nM	–	–
COCCOCCOCCOCC1(C)CC=C(c2nccc(COc3ccc4cc3C[C@H](C(=O)O)Oc3ncnc5sc(-c6ccc(F)cc6)c(c35)-c3c(C)c(Cl)c(c(Cl)c3C)O[C@H](CN3CCN(C)CC3)CO4)n2)CC1 (single isomer, unassigned) [Example 112, (7R,16R)-19,23-dichloro-1-(4-fluorophenyl)-20,22-dimethyl-16-[(4-methylpiperazin-1-yl)methyl]-10-({2-[(4R*)-4-methyl-4-(2,5,8,11-tetraoxadodecan-1-yl)cyclohex-1-en-1-yl]pyrimidin-4-yl}methoxy)-7,8,15,16-tetrahydro-18,21-etheno-13,9-(metheno)-6,14,17-trioxa-2-thia-3,5-diazacyclononadeca[1,2,3-cd]indene-7-carboxylic Acid]	–	–	0.217 nM	0.012 nM	0.000283 µM	0.000132 µM
COCCOCCOCCOCCOCC1(F)CC=C(c2nccc(COc3ccc4cc3C[C@H](C(=O)O)Oc3ncnc5sc(-c6ccc(F)cc6)c(c35)-c3c(C)c(Cl)c(c(Cl)c3C)O[C@H](CN3CCN(C)CC3)CO4)n2)CC1 (single isomer, unassigned) [Example 114, (7R,16R)-19,23-dichloro-10-({2-[(4S*)-4-fluoro-4-(2,5,8,11,14-pentaoxapentadecan-1-yl)cyclohex-1-en-1-yl]pyrimidin-4-yl}methoxy)-1-(4-fluorophenyl)-20,22-dimethyl-16-[(4-methylpiperazin-1-yl)methyl]-7,8,15,16-tetrahydro-18,21-etheno-13,9-(metheno)-6,14,17-trioxa-2-thia-3,5-diazacyclononadeca[1,2,3-cd]indene-7-carboxylic Acid]	0.000331 µM	0.000197 µM	0.15 nM	0.018 nM	–	–
COCCOCCOCCOCC1(C)CC=C(c2nccc(COc3ccc4cc3C[C@H](C(=O)O)Oc3ncnc5sc(-c6ccc(F)cc6)c(c35)-c3c(C)c(Cl)c(c(Cl)c3C)O[C@H](CN3CCN(C)CC3)CO4)n2)CC1 (single isomer, unassigned) [Example 119, (7R,16R)-19,23-dichloro-1-(4-fluorophenyl)-20,22-dimethyl-16-[(4-methylpiperazin-1-yl)methyl]-10-({2-[(4S*)-4-methyl-4-(2,5,8,11-tetraoxadodecan-1-yl)cyclohex-1-en-1-yl]pyrimidin-4-yl}methoxy)-7,8,15,16-tetrahydro-18,21-etheno-13,9-(metheno)-6,14,17-trioxa-2-thia-3,5-diazacyclononadeca[1,2,3-cd]indene-7-carboxylic Acid]	0.000333 µM	0.000181 µM	0.16 nM	0.004 nM	–	–
COCCOCCOCCOCC1(F)CC=C(c2nccc(COc3ccc4cc3C[C@H](C(=O)O)Oc3ncnc5sc(C6=CCCC6)c(c35)-c3c(C)c(Cl)c(c(Cl)c3C)O[C@H](CN3CCN(C)CC3)CO4)n2)CC1 (single isomer, unassigned) [Example 125, (7R,16R)-19,23-dichloro-1-(cyclopent-1-en-1-yl)-10-({2-[(4S*)-4-fluoro-4-(2,5,8,11-tetraoxadodecan-1-yl)cyclohex-1-en-1-yl]pyrimidin-4-yl}methoxy)-20,22-dimethyl-16-[(4-methylpiperazin-1-yl)methyl]-7,8,15,16-tetrahydro-18,21-etheno-13,9-(metheno)-6,14,17-trioxa-2-thia-3,5-diazacyclononadeca[1,2,3-cd]indene-7-carboxylic Acid]	–	–	0.455 nM	0.037 nM	0.00111 µM	0.000288 µM
COCCOCCOCC1(F)CC=C(c2nccc(COc3ccc4cc3C[C@H](C(=O)O)Oc3ncnc5sc(C6CCC6)c(c35)-c3c(C)c(Cl)c(c(Cl)c3C)O[C@H](CN3CCN(C)CC3)CO4)n2)CC1 (single isomer, unassigned) [Example 130, (7R,16R)-19,23-dichloro-1-cyclobutyl-10-({2-[(4R*)-4-fluoro-4-{[2-(2-methoxyethoxy)ethoxy]methyl}cyclohex-1-en-1-yl]pyrimidin-4-yl}methoxy)-20,22-dimethyl-16-[(4-methylpiperazin-1-yl)methyl]-7,8,15,16-tetrahydro-18,21-etheno-13,9-(metheno)-6,14,17-trioxa-2-thia-3,5-diazacyclononadeca[1,2,3-cd]indene-7-carboxylic Acid]	–	–	1.74 nM	0.026 nM	0.000489 µM	0.000309 µM
COc1ccccc1-c1nccc(COc2ccc3cc2C[C@H](C(=O)O)Oc2ncnc4sc(-c5ccc(F)cc5)c(c24)-c2ccc(c(Cl)c2C)O[C@H](CN2CCN(C[C@H]4O[C@H](OC)[C@@H](OC)[C@@H](OC)[C@@H]4OC)CC2)CO3)n1 [Example 6, methyl 6-(4-{[(7R,16R,21S)-7-carboxy-19-chloro-1-(4-fluorophenyl)-10-{[2-(2-methoxyphenyl)pyrimidin-4-yl]methoxy}-20-methyl-7,8,15,16-tetrahydro-18,21-etheno-13,9-(metheno)-6,14,17-trioxa-2-thia-3,5-diazacyclononadeca[1,2,3-cd]inden-16-yl]methyl}piperazin-1-yl)-6-deoxy-2,3,4-tri-O-methyl-a-D-mannopyranoside]	–	–	0.221 nM	0.014 nM	0.024 µM	0.03 µM
CO[C@H]1O[C@H](COc2cccc(-c3nccc(COc4ccc5cc4C[C@H](C(=O)O)Oc4ncnc6sc(-c7ccc(F)cc7)c(c46)-c4ccc(c(Cl)c4C)O[C@H](CN4CCN(C)CC4)CO5)n3)c2)[C@@H](OC)[C@H](OC)[C@@H]1OC [Example 7, methyl 6-O-{3-[4-({[(7R,16R,21S)-7-carboxy-19-chloro-1-(4-fluorophenyl)-20-methyl-16-[(4-methylpiperazin-1-yl)methyl]-7,8,15,16-tetrahydro-18,21-etheno-13,9-(metheno)-6,14,17-trioxa-2-thia-3,5-diazacyclononadeca[1,2,3-cd]inden-10-yl]oxy}methyl)pyrimidin-2-yl]phenyl}-2,3,4-tri-O-methyl-a-D-mannopyranoside]	–	–	0.599 nM	0.054 nM	0.011 µM	0.007 µM
CO[C@H]1O[C@H](COc2cccc(-c3nccc(COc4ccc5cc4C[C@@H](C(=O)O)Oc4ncnc6sc(-c7ccc(F)cc7)c(c46)-c4ccc(c(Cl)c4C)O[C@H](CN4CCN(C)CC4)CO5)n3)c2)[C@@H](OC)[C@H](OC)[C@@H]1OC [Example 8, methyl 6-O-{3-[4-({[(7S,16R,21S)-7-carboxy-19-chloro-1-(4-fluorophenyl)-20-methyl-16-[(4-methylpiperazin-1-yl)methyl]-7,8,15,16-tetrahydro-18,21-etheno-13,9-(metheno)-6,14,17-trioxa-2-thia-3,5-diazacyclononadeca[1,2,3-cd]inden-10-yl]oxy}methyl)pyrimidin-2-yl]phenyl}-2,3,4-tri-O-methyl-a-D-mannopyranoside]	–	–	111 nM	8.83 nM	0.989 µM	0.518 µM
CO[C@H]1O[C@H](COc2ccc(-c3nccc(COc4ccc5cc4C[C@H](C(=O)O)Oc4ncnc6sc(-c7ccc(F)cc7)c(c46)-c4ccc(c(Cl)c4C)CN(CCN4CCN(C)CC4)C5)n3)cc2)[C@@H](O)[C@H](O)[C@H]1O [Example 9, methyl 6-O-{4-[4-({[(7R,20S)-7-carboxy-18-chloro-1-(4-fluorophenyl)-19-methyl-15-[2-(4-methylpiperazin-1-yl)ethyl]-7,8,15,16-tetrahydro-14H-17,20-etheno-13,9-(metheno)-6-oxa-2-thia-3,5,15-triazacyclooctadeca[1,2,3-cd]inden-10-yl]oxy}methyl)pyrimidin-2-yl]phenyl}-a-D-glucopyranoside]	–	–	0.296 nM	0.048 nM	> 1 µM	0.732 µM
CO[C@H]1O[C@H](COc2ccc(-c3nccc(COc4ccc5cc4C[C@H](C(=O)O)Oc4ncnc6sc(-c7ccc(F)cc7)c(c46)-c4ccc(c(Cl)c4C)CN(CCN4CCN(C)CC4)C5)n3)cc2)[C@@H](O)[C@H](O)[C@@H]1O [Example 10, methyl 6-O-{4-[4-({[(7R,20S)-7-carboxy-18-chloro-1-(4-fluorophenyl)-19-methyl-15-[2-(4-methylpiperazin-1-yl)ethyl]-7,8,15,16-tetrahydro-14H-17,20-etheno-13,9-(metheno)-6-oxa-2-thia-3,5,15-triazacyclooctadeca[1,2,3-cd]inden-10-yl]oxy}methyl)pyrimidin-2-yl]phenyl}-a-D-mannopyranoside]	–	–	0.494 nM	0.06 nM	> 1 µM	> 1 µM
